Key:
Format in all cases: in vivo
[1] = test system: crabgrass, large (large crabgrass, Digitaria sanguinalis); assay: Test A pre-/postemergence: crabgrass, large
In short: (§1)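 Visual 0–100 injury ratings (0 no effect, 100 complete control) taken about ten days after treatment, relative to untreated controls. Preemergence treatment was a directed soil spray; postemergence plants were 2–10 cm tall at one- to two-leaf stage. Soil: loam/sand blend.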

[2] = test system: velvetleaf (Abutilon theophrasti); assay: Test A pre-/postemergence: velvetleaf
In short: as §1

[3] = test system: corn (Zea mays); assay: Test A pre-/postemergence: corn
In short: as §1

[4] = test system: blackgrass (Alopecurus myosuroides); assay: Test C pre-/postemergence: blackgrass
In short: (§2)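 Preemergence on seeds in loam/sand, postemergence on 2–18 cm (1–4-leaf) plants in peat-based medium; compounds in non-phytotoxic solvent with surfactant. After 13–15 days in greenhouse, visual rating versus controls, 0 (no effect) to 100 (complete control).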

[5] = test system: ryegrass, Italian (Italian ryegrass, Lolium multiflorum); assay: Test C pre-/postemergence: ryegrass, Italian
In short: as §2

[6] = test system: galium (catchweed bedstraw, Galium aparine); assay: Test C pre-/postemergence: galium
In short: as §2

[7] = test system: large crabgrass (Digitaria sanguinalis); assay: Test C pre-/postemergence: large crabgrass
In short: as §2

[8] = test system: foxtail, giant (giant foxtail, Setaria faberii); assay: Test C pre-/postemergence: foxtail, giant
In short: as §2

[9] = test system: kochia (Kochia scoparia); assay: Test C pre-/postemergence: kochia; details: Postemergence
In short: as §2

[10] = test system: pigweed (Amaranthus retroflexus); assay: Test C pre-/postemergence: pigweed
In short: as §2

[11] = test system: ragweed (common ragweed, Ambrosia elation); assay: Test C pre-/postemergence: ragweed
In short: as §2

[12] = test system: soybean (Glycine max); assay: Test C pre-/postemergence: soybean
In short: as §2

[13] = Postemergence, 125 g ai/ha, 0 to 100 scale, 0 is no effect, 100 is complete control
[14] = Postemergence, 500 g ai/ha, visual rating on 0 to 100 scale (0 no effect, 100 complete control), approximately ten days
[15] = Preemergence, 125 g ai/ha, 0 to 100 scale where 0 is no effect and 100 is complete control
[16] = Preemergence, 500 g ai/ha, 0 to 100 scale (0 no effect, 100 complete control)
[17] = Postemergence, 31 g ai/ha, scale 0 to 100 (0 no effect, 100 complete control)
[18] = Postemergence, 62 g ai/ha, scale 0 to 100 (0 no effect, 100 complete control)
[19] = Postemergence, 125 g ai/ha, scale 0 to 100, 0 no effect, 100 complete control
[20] = Postemergence, 250 g ai/ha, scale 0 to 100
[21] = Preemergence, 31 g ai/ha, scale of 0 to 100, 0 is no effect, 100 is complete control
[22] = Preemergence, 62 g ai/ha, scale of 0 to 100, 0 is no effect, 100 is complete control
[23] = Preemergence, 125 g ai/ha, scale 0 to 100, 0 no effect, 100 complete control
[24] = Preemergence, 250 g ai/ha, scale 0 to 100, 0 no effect, 100 complete control
[25] = 31 g ai/ha, scale 0 to 100 (0 no effect, 100 complete control)
[26] = 62 g ai/ha, scale 0 to 100 (0 no effect, 100 complete control)
[27] = 125 g ai/ha, scale 0 to 100, 0 no effect, 100 complete control
[28] = Postemergence, 500 g ai/ha, 0 to 100 scale, 0 is no effect, 100 is complete control
[29] = Preemergence, 31 g ai/ha, scale 0 (no effect) to 100 (complete control)

SMILES: Cc1nn(-c2ccc(C(F)(F)F)c(F)c2)nc1Cc1ccnc(C(F)(F)F)c1 [Compound 162]
- Plant response rating, Crabgrass, Large [1, 13]: 90
- Crabgrass, Large plant response rating [1, 14]: 90
- Plant response rating, Crabgrass, Large [1, 15]: 100
- Plant response rating, Crabgrass, Large [1, 16]: 100
- Plant response rating, Velvetleaf [2, 13]: 90
- Velvetleaf plant response rating [2, 14]: 100
- Plant response rating, Velvetleaf [2, 15]: 100
- Plant response rating, Velvetleaf [2, 16]: 100
- Plant response rating, Corn [3, 13]: 20
- Corn plant response rating [3, 14]: 40
- Plant response rating, Corn [3, 15]: 20
- Plant response rating, Corn [3, 16]: 30
- Plant response rating, Blackgrass [4, 17]: 45
- Plant response rating, Blackgrass [4, 18]: 80
- Plant response rating, Blackgrass [4, 19]: 85
- Plant response rating, Blackgrass [4, 20]: 90
- Plant response rating, Blackgrass [4, 21]: 60
- Plant response rating, Blackgrass [4, 22]: 90
- Plant response rating, Blackgrass [4, 23]: 90
- Plant response rating, Blackgrass [4, 24]: 95
- Plant response rating, Ryegrass, Italian [5, 17]: 30
- Plant response rating, Ryegrass, Italian [5, 18]: 35
- Plant response rating, Ryegrass, Italian [5, 19]: 60
- Plant response rating, Ryegrass, Italian [5, 20]: 80
- Plant response rating, Ryegrass, Italian [5, 21]: 60
- Plant response rating, Ryegrass, Italian [5, 22]: 80
- Plant response rating, Ryegrass, Italian [5, 23]: 90
- Plant response rating, Ryegrass, Italian [5, 24]: 95
- Plant response rating, Galium [6, 17]: 75
- Plant response rating, Galium [6, 18]: 75
- Plant response rating, Galium [6, 19]: 80
- Plant response rating, Galium [6, 20]: 95
- Plant response rating, Galium [6, 21]: 100
- Plant response rating, Galium [6, 23]: 100
- Plant response rating, Galium [6, 24]: 100
- Plant response rating, Crabgrass, Large [7, 17]: 20
- Plant response rating, Crabgrass, Large [7, 18]: 35
- Plant response rating, Crabgrass, Large [7, 19]: 35
- Plant response rating, Crabgrass, Large [7, 20]: 80
- Plant response rating, Crabgrass, Large [7, 21]: 100
- Plant response rating, Crabgrass, Large [7, 22]: 100
- Plant response rating, Crabgrass, Large [7, 23]: 100
- Plant response rating, Crabgrass, Large [7, 24]: 100
- Plant response rating, Foxtail, Giant [8, 17]: 45
- Plant response rating, Foxtail, Giant [8, 18]: 55
- Plant response rating, Foxtail, Giant [8, 19]: 65
- Plant response rating, Foxtail, Giant [8, 20]: 98
- Plant response rating, Foxtail, Giant [8, 21]: 98
- Plant response rating, Foxtail, Giant [8, 22]: 100
- Plant response rating, Foxtail, Giant [8, 23]: 100
- Plant response rating, Foxtail, Giant [8, 24]: 100
- Plant response rating, Kochia [9, 25]: 90
- Plant response rating, Kochia [9, 26]: 90
- Plant response rating, Kochia [9, 27]: 95
- Plant response rating, Kochia ([9]; 250 g ai/ha, scale 0 to 100): 95
- Plant response rating, Pigweed [10, 17]: 85
- Plant response rating, Pigweed [10, 18]: 85
- Plant response rating, Pigweed [10, 19]: 90
- Plant response rating, Pigweed [10, 20]: 95
- Plant response rating, Pigweed [10, 21]: 100
- Plant response rating, Pigweed [10, 22]: 100
- Plant response rating, Pigweed [10, 23]: 100
- Plant response rating, Pigweed [10, 24]: 100
- Plant response rating, Ragweed [11, 17]: 85
- Plant response rating, Ragweed [11, 19]: 85
- Plant response rating, Ragweed [11, 20]: 95
- Plant response rating, Ragweed [11, 21]: 50
- Plant response rating, Ragweed [11, 22]: 75
- Plant response rating, Ragweed [11, 23]: 80
- Plant response rating, Ragweed [11, 24]: 95
- Plant response rating, Soybean [12, 17]: 70
- Plant response rating, Soybean [12, 18]: 70
- Plant response rating, Soybean [12, 19]: 75
- Plant response rating, Soybean [12, 20]: 95
- Plant response rating, Soybean [12, 21]: 15
- Plant response rating, Soybean [12, 22]: 15
- Plant response rating, Soybean [12, 24]: 25

SMILES: CCc1nn(-c2ccc(F)cc2)nc1Oc1ccnc(C(F)(F)F)c1 [Compound 166]
- Plant response rating, Crabgrass, Large [1, 13]: 90
- Crabgrass, Large plant response rating [1, 28]: 90
- Plant response rating, Crabgrass, Large [1, 15]: 100
- Plant response rating, Crabgrass, Large [1, 16]: 100
- Plant response rating, Velvetleaf [2, 13]: 80
- Velvetleaf plant response rating [2, 28]: 100
- Plant response rating, Velvetleaf [2, 15]: 30
- Plant response rating, Velvetleaf [2, 16]: 70
- Plant response rating, Corn [3, 13]: 20
- Corn plant response rating [3, 28]: 30
- Plant response rating, Corn [3, 15]: 10
- Plant response rating, Corn [3, 16]: 30
- Plant response rating, Blackgrass [4, 17]: 10
- Plant response rating, Blackgrass [4, 18]: 20
- Plant response rating, Blackgrass [4, 19]: 40
- Plant response rating, Blackgrass [4, 20]: 60
- Plant response rating, Blackgrass [4, 29]: 15
- Plant response rating, Blackgrass [4, 22]: 90
- Plant response rating, Blackgrass [4, 23]: 90
- Plant response rating, Blackgrass [4, 24]: 95
- Plant response rating, Ryegrass, Italian [5, 17]: 5
- Plant response rating, Ryegrass, Italian [5, 18]: 5
- Plant response rating, Ryegrass, Italian [5, 19]: 20
- Plant response rating, Ryegrass, Italian [5, 20]: 25
- Plant response rating, Ryegrass, Italian [5, 29]: 5
- Plant response rating, Ryegrass, Italian [5, 22]: 40
- Plant response rating, Ryegrass, Italian [5, 23]: 50
- Plant response rating, Ryegrass, Italian [5, 24]: 100
- Plant response rating, Galium [6, 17]: 50
- Plant response rating, Galium [6, 18]: 50
- Plant response rating, Galium [6, 19]: 60
- Plant response rating, Galium [6, 20]: 80
- Plant response rating, Galium [6, 29]: 10
- Plant response rating, Galium [6, 22]: 10
- Plant response rating, Galium [6, 23]: 90
- Plant response rating, Galium [6, 24]: 100
- Plant response rating, Crabgrass, Large [7, 17]: 15
- Plant response rating, Crabgrass, Large [7, 18]: 15
- Plant response rating, Crabgrass, Large [7, 19]: 20
- Plant response rating, Crabgrass, Large [7, 20]: 40
- Plant response rating, Crabgrass, Large [7, 29]: 85
- Plant response rating, Crabgrass, Large [7, 22]: 98
- Plant response rating, Crabgrass, Large [7, 23]: 100
- Plant response rating, Crabgrass, Large [7, 24]: 100
- Plant response rating, Foxtail, Giant [8, 17]: 20
- Plant response rating, Foxtail, Giant [8, 18]: 40
- Plant response rating, Foxtail, Giant [8, 19]: 40
- Plant response rating, Foxtail, Giant [8, 20]: 40
- Plant response rating, Foxtail, Giant [8, 29]: 100
- Plant response rating, Foxtail, Giant [8, 22]: 100
- Plant response rating, Foxtail, Giant [8, 23]: 100
- Plant response rating, Foxtail, Giant [8, 24]: 100
- Plant response rating, Kochia [9, 25]: 90
- Plant response rating, Kochia [9, 26]: 90
- Plant response rating, Kochia [9, 27]: 90
- Plant response rating, Kochia ([9]; 250 g ai/ha, scale 0 to 100): 90
- Plant response rating, Pigweed [10, 17]: 35
- Plant response rating, Pigweed [10, 18]: 85
- Plant response rating, Pigweed [10, 19]: 95
- Plant response rating, Pigweed [10, 20]: 98
- Plant response rating, Pigweed [10, 29]: 100
- Plant response rating, Pigweed [10, 22]: 100
- Plant response rating, Pigweed [10, 23]: 100
- Plant response rating, Pigweed [10, 24]: 100
- Plant response rating, Ragweed [11, 17]: 15
- Plant response rating, Ragweed [11, 18]: 15
- Plant response rating, Ragweed [11, 19]: 25
- Plant response rating, Ragweed [11, 20]: 75
- Plant response rating, Ragweed [11, 29]: 20
- Plant response rating, Ragweed [11, 22]: 20
- Plant response rating, Ragweed [11, 23]: 25
- Plant response rating, Ragweed [11, 24]: 55
- Plant response rating, Soybean [12, 17]: 35
- Plant response rating, Soybean [12, 18]: 35
- Plant response rating, Soybean [12, 19]: 35
- Plant response rating, Soybean [12, 20]: 35
- Plant response rating, Soybean [12, 29]: 5
- Plant response rating, Soybean [12, 22]: 5
- Plant response rating, Soybean [12, 23]: 20
- Plant response rating, Soybean [12, 24]: 35
